{
  "source": "patent US6622729B1",
  "about": "“Selective photodynamic treatment” (priority 1999, dated 2003)",
  "origin": "cited, not measured here",
  "conditions": "SnET2 administered in 0.5 and 1 mg/kg doses",
  "data": [
    {"smiles": "CCOC(=O)C1=Cc2c3nc(cc4nc(cc5[n-]c(cc6[n-]c2c(C)c6CC)c(C)c5CC)C(C)=C4CC)[C@@H](C)[C@]13CC.[Cl-].[Cl-].[Sn]", "note": "(racemic) [SnET2, tin ethyl etiopurpurin]", "values": [
      {"measurement": "systemic toxicity", "value": "no apparent systemic toxicity"}
    ]}
  ]
}
